This note sets out measurements from ChEMBL document CHEMBL1201862, “PubChem BioAssay data set” (2004).

Structures are written as SMILES.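 Results reflect a 48-hour exposure of cells in 96-well plates to compound at five concentrations. GI50: concentration for 50% inhibition of growth.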 Calls of active or inactive are those of the source. Rule as the data show it: active = GI50 up to about 1.1 µM and inactive = higher.

Test systems include LXFL 529; SNB-78; HOP-18; KM-20L2; M19-MEL; DMS-114; DLD-1; XF498; RXF 631.
Common to all, as to test: NCI anticancer screen, dose series, 48 h

With `O=C(CCN1CCCCC1)Nc1ccc2c(c1)C(=O)c1ccc(NC(=O)CCN3CCCCC3)cc1C2=O`, the GI50 in the test with LXFL 529 was 1.88 µM (inactive); in the test with SNB-78, 15.3 µM (inactive); with HOP-18, 17 µM (inactive); with KM-20L2 it was 18 µM (inactive); in the test with M19-MEL, 43.1 µM (inactive); in the test on DMS-114, 17.6 µM (inactive). Moreover, in the test on DLD-1, the GI50 is 2.92 µM (inactive).
Turning to `Cc1nc(-n2nc(-c3ccccc3)cc2-c2ccccc2)sc1C(=O)/C=C/c1cccc([N+](=O)[O-])c1`, the GI50 in the test on SNB-78 is 52.7 µM (inactive); with HOP-18, 12.1 µM (inactive); in the test on KM-20L2 it was 17.8 µM (inactive); in the test with M19-MEL, 16.4 µM (inactive); in the test with DMS-114 it was 11.6 µM (inactive); with DLD-1, 12 µM (inactive).
In the case of `CN(C)C(=S)NC(=S)Nc1ccc2ccccc2c1`, the GI50 is 2.07 µM (inactive) in the test on LXFL 529, 16.1 µM (inactive) in the test on XF498, 23.7 µM (inactive) with SNB-78 and 10 µM (inactive) in the test with KM-20L2.
`CCCCCC(=O)OC[n+]1ccc2c(C)c3[nH]c4ccccc4c3c(C)c2c1`: the GI50 in the test on RXF 631 was 0.408 µM (active); in the test with LXFL 529, 1.02 µM (active); with SNB-78, 0.995 µM (active); with KM-20L2, 0.612 µM (active); with M19-MEL it was 1.02 µM (active); in the test on DMS-114, 1.02 µM (active). Also, in the test with DLD-1, the GI50 was 0.45 µM (active).
Take `O=C(O)C1=C(C(=O)O)Oc2ccccc2O1`: the GI50 in the test on LXFL 529, in the test on XF498, in the test on SNB-78, in the test on HOP-18, in the test on KM-20L2 and in the test with M19-MEL was > 100 µM (inactive) in each case. The GI50 in the test on DMS-114 and in the test with DLD-1 was > 100 µM (inactive) throughout.
In the case of `C/C(=N\NC(=O)CC(=O)Nc1ccc(C)cc1)c1cc2ccccc2oc1=O`, the GI50 was 1.67 µM (inactive) with XF498; 68.2 µM (inactive) in the test on HOP-18; > 100 µM (inactive) in the test with KM-20L2; > 100 µM (inactive) in the test with M19-MEL; > 100 µM (inactive) in the test with DMS-114; > 100 µM (inactive) in the test on DLD-1.
Regarding `CN(C(=O)c1cccs1)C(=S)N1CCN(c2ccccn2)CC1`, the GI50 with LXFL 529, in the test with XF498, with SNB-78, in the test on HOP-18, with KM-20L2 and in the test on M19-MEL was > 100 µM (inactive) in each case. The GI50 with DMS-114 and in the test on DLD-1 was > 100 µM (inactive) in each case.
For `CN(CCS(=O)(=O)N1C(=O)C2CCCN2C(=O)[C@@H]1Cc1ccccc1)C(=O)OCc1ccccc1` (some centres not stated), the GI50 in the test on RXF 631 was 56.2 µM (inactive); in the test with LXFL 529, 45.4 µM (inactive); in the test on SNB-78 it was 92.7 µM (inactive); in the test on HOP-18 it was > 100 µM (inactive); in the test on KM-20L2, 61.8 µM (inactive); in the test on M19-MEL it was 62.1 µM (inactive). The GI50 was 59.6 µM (inactive) with DMS-114 and > 100 µM (inactive) in the test with DLD-1.
Take `CCOC(=O)C1COc2cc(-c3cc(=O)c4ccccc4o3)ccc2O1` (configuration not stated): the GI50 in the test on LXFL 529 is 65.2 µM (inactive); with XF498, 30.6 µM (inactive); with SNB-78, 51.1 µM (inactive); with KM-20L2 it was > 100 µM (inactive); in the test on M19-MEL, 29.7 µM (inactive); in the test on DMS-114, 42.6 µM (inactive). Also, the GI50 in the test with DLD-1 was 36.1 µM (inactive).
For `CN(C)CCN(C)CCC(=O)/C=C/c1ccccc1`, the GI50 in the test with LXFL 529 is 17.7 µM (inactive); in the test with XF498 it was 22.2 µM (inactive); in the test with SNB-78, 31 µM (inactive); with HOP-18, > 100 µM (inactive); in the test with KM-20L2, 56.2 µM (inactive); in the test on M19-MEL, 20.2 µM (inactive). Further, the figures for the GI50 in the test on DMS-114 and in the test with DLD-1 were 30.2 µM (inactive) and 19.5 µM (inactive), respectively.
`CC(C)(Oc1ccc(C(=O)c2ccc(Cl)cc2)cc1Cl)C(=O)Nc1c(Cl)cccc1Cl`: the GI50 in the test on LXFL 529, with XF498, with SNB-78, in the test with HOP-18, in the test with KM-20L2 and in the test with M19-MEL was > 100 µM (inactive) in each case. For the same molecule, the GI50 is 8.75 µM (inactive) in the test on DMS-114 and > 100 µM (inactive) in the test on DLD-1.
As for `N#CCCN(C1=NN(C(=O)CC(=O)Nc2ccc(Cl)cc2)C(c2ccccc2)C1)c1ccc(Cl)cc1` (configuration not stated), the GI50 in the test with RXF 631 is > 100 µM (inactive); in the test on LXFL 529, > 100 µM (inactive); in the test on XF498, > 100 µM (inactive); in the test on SNB-78 it was 40.4 µM (inactive); in the test on HOP-18, > 100 µM (inactive); in the test with KM-20L2, > 100 µM (inactive). The GI50 in the test with M19-MEL, with DMS-114 and in the test on DLD-1 was > 100 µM (inactive) throughout.
In the case of `CC(=O)c1ccc(N2C(=O)C3c4[nH]c5ccccc5c4C4CCC(C(C)(C)C)CC4C3C2=O)cc1` (configuration not stated), the GI50 with LXFL 529 was 29.3 µM (inactive); with SNB-78, 19.6 µM (inactive); with HOP-18 it was 91.6 µM (inactive); in the test on KM-20L2, 18.7 µM (inactive); in the test on M19-MEL it was 19.2 µM (inactive); with DMS-114, 23.1 µM (inactive). In addition, in the test on DLD-1, the GI50 is 33.2 µM (inactive).
Take `O=C1CCCCCCCCCCC(=O)N2CCOCCOCCN1Cc1cccc(n1)C2`: the GI50 in the test on RXF 631, with LXFL 529, in the test on SNB-78, with KM-20L2, with M19-MEL and in the test with DMS-114 was > 100 µM (inactive) in each case. Further, the GI50 in the test with DLD-1 is > 100 µM (inactive).
For the molecule `Cc1c(C(=O)CC(=O)C(=O)Nc2cccc(C(F)(F)F)c2)[n+]([O-])c2ccccc2[n+]1[O-]`, the GI50 is 2.84 µM (inactive) in the test with RXF 631; 4.02 µM (inactive) in the test with LXFL 529; 6.79 µM (inactive) in the test on SNB-78; 11.2 µM (inactive) in the test on HOP-18; 3.8 µM (inactive) with KM-20L2; 1.82 µM (inactive) in the test with M19-MEL. Moreover, in the test with DMS-114, the GI50 was 1.92 µM (inactive).
With `O=C(/C=C/c1ccco1)N1CCN(Cc2ccccc2)CC1`, the GI50 in the test with RXF 631, in the test with LXFL 529, in the test on XF498, in the test on SNB-78, with HOP-18 and in the test with KM-20L2 was > 100 µM (inactive) throughout. Further, the GI50 with M19-MEL, in the test with DMS-114 and with DLD-1 was > 100 µM (inactive) in each case.
Turning to `O=C(COc1ccc(Br)cc1Br)N1N=C(c2ccc([N+](=O)[O-])o2)CC1(O)c1ccccc1` (configuration not stated), the GI50 with LXFL 529 is 8.73 µM (inactive); with SNB-78 it was 27.2 µM (inactive); with HOP-18 it was 8.75 µM (inactive); in the test on KM-20L2, 17.9 µM (inactive); in the test with DMS-114 it was 6.11 µM (inactive); in the test on DLD-1 it was 10.7 µM (inactive).
As for `Cn1c2c(c3ccccc31)C1CCCCCCC1C1C(=O)OC(=O)C21` (configuration not stated), the GI50 in the test on RXF 631 was 33.3 µM (inactive); in the test on LXFL 529 it was 39.7 µM (inactive); with XF498, 43.6 µM (inactive); in the test with SNB-78, > 100 µM (inactive); in the test with HOP-18 it was > 100 µM (inactive); in the test on M19-MEL it was 37.4 µM (inactive). For the same molecule, the GI50 is 29.1 µM (inactive) in the test on DMS-114 and 33.6 µM (inactive) in the test with DLD-1.
`CN(C)c1ccc(/C=C/c2ccc(/C=C/c3ccc(N(C)C)cc3)cc2)cc1`: the GI50 in the test with RXF 631 is > 100 µM (inactive); in the test on LXFL 529, 75.9 µM (inactive); in the test on SNB-78 it was > 100 µM (inactive); in the test with HOP-18, > 100 µM (inactive); in the test on KM-20L2, > 100 µM (inactive); in the test on M19-MEL, > 100 µM (inactive). In addition, the GI50 in the test with DLD-1 was 33.6 µM (inactive).
Regarding `Cc1cc(N(CCC#N)CCC#N)ccc1/C=C(\NC(=O)/C=C/c1ccccc1)C(=O)Nc1ccc(Cl)cc1`, the GI50 in the test with RXF 631 was > 100 µM (inactive); in the test with LXFL 529, 0.0991 µM (active); with XF498 it was > 100 µM (inactive); in the test on SNB-78 it was > 100 µM (inactive); in the test with HOP-18, > 100 µM (inactive); in the test with M19-MEL, 0.944 µM (active). The GI50 in the test with DMS-114 was 1.62 µM (inactive); in the test on DLD-1, 5.58 µM (inactive).
On to `OC12c3ccccc3C3CCC4(OCCO4)C3C1c1ccccc12` (configuration not stated), for which the GI50 was > 100 µM (inactive) in the test on LXFL 529; > 100 µM (inactive) in the test on SNB-78; > 100 µM (inactive) with HOP-18; > 100 µM (inactive) in the test on KM-20L2; > 100 µM (inactive) in the test on M19-MEL; 53.6 µM (inactive) with DMS-114. In addition, the GI50 with DLD-1 was > 100 µM (inactive).
With `CC1C(=O)O[C@H]2C1CC[C@@]1(C)[C@H](O)CC[C@@]13C[C@]2(O)OO3` (some centres not stated), the GI50 in the test on LXFL 529, in the test with HOP-18, in the test with KM-20L2, in the test with M19-MEL, in the test with DMS-114 and in the test on DLD-1 was > 100 µM (inactive) throughout.
For the molecule `CC(=O)OC(C)(C)[C@@H]1CC[C@]2(C)/C=C/[C@H](C)C[C@@H](O)C3=C(C)C[C@@H](O3)C12` (some centres not stated), the GI50 in the test on RXF 631, in the test on LXFL 529, in the test with SNB-78, in the test on HOP-18, in the test with KM-20L2 and in the test on M19-MEL was > 100 µM (inactive) in each case. The GI50 in the test on DMS-114 and in the test with DLD-1 was > 100 µM (inactive) each time.
Turning to `CC1C[C@@]2(c3ccccc3)C(=O)CCC[C@H]2N1` (some centres not stated), the GI50 in the test on LXFL 529, in the test with SNB-78, with KM-20L2, in the test on M19-MEL, with DMS-114 and in the test with DLD-1 was > 100 µM (inactive) each time.
